Earlier results in patent publication US7517693B2, “Method and apparatus for determining a molecular descriptor of absorption for a candidate compound” (North Carolina State University, priority 2002, dated 2009).

Legend:
[1] = Table IV study compounds
[2] = Table III calibration compounds, known literature descriptor; for logL^16 (solute gas-hexadecane partition coefficient): 25° C.

Compound | logKo/w [1] | logL^16 (solute gas-hexadecane partition coefficient) [2] | α (effective solute H-bond acidity) [2] | β (effective solute H-bond basicity) [2] | π (effective solute dipolarity and polarizability) [2]
Nc1ccccc1 [Aniline] | 0.90 | – | – | – | –
Cl[C@H]1[C@H](Cl)[C@@H](Cl)[C@@H](Cl)[C@H](Cl)[C@H]1Cl [Lindane] | 3.72 | – | – | – | –
COC(=O)c1cccnc1 [methyl nicotinate] | 0.64 | – | – | – | –
Cc1cccc(O)c1 [m-cresol] | 1.95 | – | – | – | –
CCNc1nc(Cl)nc(NC(C)C)n1 [Atrazine] | 2.61 | – | – | – | –
C1COCCO1 [1,4-dioxane] | −0.27 | – | – | – | –
Oc1cccc(O)c1 [Resorcinol] | 0.8 | – | – | – | –
CCC[N+](=O)[O-] [1-nitropropane] | 0.87 | – | – | – | –
Nonylphenol | 5.99 | – | – | – | –
ClC1=C(Cl)C2(Cl)C3C4OC4C(Cl)C3C1(Cl)C2(Cl)Cl (stereo not shown) [heptachlor epoxide] | 4.98 | – | – | – | –
O=[N+]([O-])c1ccc(O)cc1 [4-Nitrophenol] | 1.91 | 5.876 | 0.82 | 0.26 | 1.72
CC(=O)CC(C)C [4-methyl-2-pentanone] | 1.31 | – | – | – | –
CCCCCCCCCCCCN1CCCCCC1=O [Laurocapram] | 6.28 | – | – | – | –
COC(=O)c1ccccc1O [methyl salicylate] | 2.55 | – | – | – | –
COc1ccc(C(c2ccc(OC)cc2)C(Cl)(Cl)Cl)cc1 [Methoxychlor] | 5.08 | – | – | – | –
c1ccc2cc3ccccc3cc2c1 [Anthracene] | 4.45 | – | – | – | –
CCOC(=O)C(O)(c1ccc(Cl)cc1)c1ccc(Cl)cc1 [Chlorobenzilate] | 4.74 | – | – | – | –
CC12CCC(CC1)C(C)(C)O2 [1,8-cineole] | 2.74 | – | – | – | –
c1ccc2c(c1)ccc1ccccc12 [Phenanthrene] | – | 7.632 | 0.00 | 0.26 | 1.29
Nc1ccc(C(=O)O)cc1 [4-aminobenzoic acid] | 0.83 | – | – | – | –
N#Cc1ccc(O)cc1 [4-Cyanophenol] | – | – | 0.79 | 0.29 | 1.63

Compound | logKo/w [1] | logL^16 (solute gas-hexadecane partition coefficient) [2] | α (effective solute H-bond acidity) [2] | β (effective solute H-bond basicity) [2] | π (effective solute dipolarity and polarizability) [2]
Oc1ccc(I)cc1 [Compound 4-Iodophenol, 4-Iodophenol] | – | 5.492 | 0.68 | 0.20 | 1.22
CCCC(C)=O [Compound 2-pentanone, 2-pentanone] | 0.91 | – | – | – | –
ClCCl [Dichloromethane] | – | 2.019 | 0.10 | 0.05 | 0.57
CCCCCCCCCl [1-Chlorooctane] | – | 4.772 | 0.00 | 0.10 | 0.40
c1ncncn1 [1,3,5-triazine] | −1.17 | – | – | – | –
O=C(O)c1ccccc1O [salicylic acid] | 2.26 | – | – | – | –
Cc1cccc(C)c1 [m-xylene] | 3.20 | – | – | – | –
CCCCN [n-Butylamine] | – | – | 0.16 | 0.61 | 0.35
CCC(=O)c1ccccc1 [Ethylphenylketone] | – | 4.971 | 0.00 | 0.51 | 0.95
COc1cc(Cl)c(OC)cc1Cl [Chloroneb] | 3.44 | – | – | – | –
C1CCNCC1 [Piperidine] | – | 3.304 | 0.10 | 0.69 | 0.46
O=S1OCC2C(CO1)C1(Cl)C(Cl)=C(Cl)C2(Cl)C1(Cl)Cl (stereo not shown) [endosulfan II] | 3.83 | – | – | – | –
Cc1c(C)c(C)c(C)c(C)c1C [Hexamethylbenzene] | – | 6.557 | 0.00 | 0.21 | 0.72
CNC(=O)Oc1cccc2ccccc12 [Carbaryl] | 2.36 | – | – | – | –
COC(=O)c1c(Cl)c(Cl)c(C(=O)OC)c(Cl)c1Cl [Dacthal] | 4.28 | – | – | – | –
CCCCCCF [1-Fluorohexane] | – | 2.951 | 0.00 | 0.10 | 0.35
CCCCI [Compound 1-iodobutane, 1-iodobutane] | 3.08 | – | – | – | –
OC1CCCCC1 [Cyclohexanol] | – | – | 0.32 | 0.57 | 0.54
CCOP(=S)(OCC)Oc1ccc([N+](=O)[O-])cc1 [Parathion] | 3.83 | – | – | – | –
CCN [Ethylamine] | – | 1.677 | 0.16 | 0.61 | 0.35
CN(C)C [Trimethylamine] | – | 1.620 | 0.00 | 0.67 | 0.20
